What was measured:
Format in all cases: functional
OVCAR-4 = experiment: Cytotoxicity against Homo sapiens (human) OVCAR4 cells after 48 hr by SRB assay; conditions: OVCAR-4, 48 h
MCF7 [1] = experiment: Cytotoxicity against Homo sapiens (human) MCF7 cells after 48 hr by SRB assay; conditions: MCF7, 48 h
[2] = Cytotoxicity against Homo sapiens (human) melanoma cells after 48 hr by SRB assay; conditions: Melanoma cell
MDA-MB-435 = experiment: Cytotoxicity against Homo sapiens (human) MDA-MB-435 cells after 48 hr by SRB assay; conditions: MDA-MB-435, 48 h
SN12C = experiment: Cytotoxicity against Homo sapiens (human) SN12C cells after 48 hr by SRB assay
SF-539 = experiment: Cytotoxicity against Homo sapiens (human) SF539 cells after 48 hr by SRB assay; conditions: SF-539, 48 h
PC-3 = experiment: Cytotoxicity against Homo sapiens (human) PC3 cells after 48 hr by SRB assay; conditions: PC-3, 48 h
OVCAR-8 = experiment: Cytotoxicity against Homo sapiens (human) OVCAR8 cells after 48 hr by SRB assay; conditions: OVCAR-8, 48 h
MDA-MB-231 = experiment: Cytotoxicity against Homo sapiens (human) MDA-MB-231 cells after 48 hr by SRB assay; conditions: MDA-MB-231, 48 h
UACC-257 = experiment: Cytotoxicity against Homo sapiens (human) UACC257 cells after 48 hr by SRB assay; conditions: UACC-257, 48 h
MCF7 [3] = experiment: Cytotoxicity against Homo sapiens (human) MCF7 cells assessed as cellular growth after 48 hr by Alamar blue assay; design: concentration or dose not given beside the values
COLO 205 = experiment: Cytotoxicity against Homo sapiens (human) COLO205 cells after 48 hr by SRB assay; conditions: COLO 205, 48 h
SF-295 = experiment: Cytotoxicity against Homo sapiens (human) SF295 cells after 48 hr by SRB assay; conditions: SF-295, 48 h
SK-MEL-2 = experiment: Cytotoxicity against Homo sapiens (human) SK-MEL-2 cells after 48 hr by SRB assay; conditions: SK-MEL-2, 48 h
OVCAR-5 = experiment: Cytotoxicity against Homo sapiens (human) OVCAR5 cells after 48 hr by SRB assay; conditions: OVCAR-5, 48 h
HCT-116 = experiment: Cytotoxicity against Homo sapiens (human) HCT116 cells after 48 hr by SRB assay; conditions: HCT-116, 48 h
TK-10 = experiment: Cytotoxicity against Homo sapiens (human) TK10 cells after 48 hr by SRB assay; conditions: TK-10, 48 h
HOP-62 = experiment: Cytotoxicity against Homo sapiens (human) HOP62 cells after 48 hr by SRB assay; conditions: HOP-62, 48 h
NCI-H226 = experiment: Cytotoxicity against Homo sapiens (human) NCI-H226 cells after 48 hr by SRB assay; conditions: NCI-H226, 48 h
K562 = experiment: Cytotoxicity against Homo sapiens (human) K562 cells after 48 hr by SRB assay; conditions: K562, 48 h

SMILES | GI50 (OVCAR-4) [µM] | GI50 (MCF7 [1]) [µM] | GI50 [2] [µM] | TGI [2] [µM] | GI50 (MDA-MB-435) [µM] | GI50 (SN12C) [µM] | GI50 (SF-539) [µM] | GI50 (PC-3) [µM] | GI50 (OVCAR-8) [µM] | GI50 (MDA-MB-231) [µM] | GI50 (UACC-257) [µM] | Activity (MCF7 [3]) | GI50 (COLO 205) [µM] | GI50 (SF-295) [µM] | GI50 (SK-MEL-2) [µM] | GI50 (OVCAR-5) [µM] | GI50 (HCT-116) [µM] | GI50 (TK-10) [µM] | GI50 (HOP-62) [µM] | GI50 (NCI-H226) [µM] | other results
O=C(NC(=S)NS(=O)(=O)c1ccc(N2N=C3c4ccccc4CC3C2c2cccs2)cc1)c1ccccc1 (centres undefined) | 87.6 | > 100 | 34.1 | 67.7 | 21.7 | 26 | 27.9 | 29.7 | 20.3 | 22.5 | 42.8 | <=32% | 38.4 | 25.4 | 44 | 18.7 |  |  |  |  | 
O=C1CS/C(=N\S(=O)(=O)c2ccc(N3N=C4c5ccccc5CC4C3c3cccs3)cc2)N1C(=O)c1ccccc1 (centres undefined) | > 100 | > 100 | 73.3 | > 100 | 37.4 | 90.7 | 44.6 | 38.1 | 45.7 | 44.6 | > 100 | <=32% | 51 | 31.7 | > 100 | 32.2 | 22 | 49.6 | 32.9 | 58.5 | 
O=S(=O)(/N=c1\scc(-c2ccccc2)n1-c1ccccc1)c1ccc(N2N=C3c4ccccc4CC3C2c2cccs2)cc1 (centres undefined) | > 100 | 29.1 | 74.6 | > 100 | 38.7 | 94.3 | > 100 | 75 | 47.2 | 52.1 | > 100 | <=32% | > 100 | 54.5 | > 100 | 88.9 |  | 32.7 | 73.2 | 78.9 | GI50 (K562): > 100 µM
O=C(c1ccccc1)n1c(-c2ccccc2)cs/c1=N\S(=O)(=O)c1ccc(N2N=C3c4ccccc4CC3C2c2cccs2)cc1 (centres undefined) | > 100 | > 100 | 51.6 | 98.2 | 31.1 | 44.4 | 58.6 | 39.2 | 42.9 | 41.3 | 45.7 | <=32% | 98.1 | 37.1 | > 100 | 34.3 | 30.5 | 30.5 | 23.7 | 30.1 | GI50 (K562): 27.6 µM
O=C1CCS/C(=N\S(=O)(=O)c2ccc(N3N=C4c5ccccc5CC4C3c3cccs3)cc2)N1c1ccccc1 (centres undefined) | 49.3 | 29.1 | 22 | 33.8 | 38.7 | 94.3 | 21.8 | 75 | 19.2 | 52.1 | 24.2 | <=32% | 36.8 | 15.8 | 28 | 22.4 | 20.3 | 32.7 | 18.6 | 26.5 | GI50 (K562): > 100 µM
O=C1CCS/C(=N\S(=O)(=O)c2ccc(N3N=C4c5ccccc5CC4C3c3cccs3)cc2)N1C(=O)c1ccccc1 (centres undefined) | > 100 | 9.1 | 15.3 | 21.2 | 22.7 | 16.7 | 23.8 | 29.2 | 0.81 | 5.77 | 0.33 | <=32% | 66.5 | 32.7 | 29.4 | 25.8 | 10 | 24.5 | 31.1 | 15.9 | GI50 (K562): 26.4 µM
O=C1CS/C(=N\S(=O)(=O)c2ccc(N3N=C4c5ccccc5CC4C3c3cccs3)cc2)N(c2ccccc2)C1 (centres undefined) | > 100 | 88.8 | 45.3 | 84.3 | 29.5 | 34.3 | 27.8 | 45 | 25.4 | 21.4 | 42.3 | <=32% | 57.2 | 32.7 | 60.2 | 34.5 | 12.5 |  | 17.4 | 22.3 | GI50 (K562): 10.3 µM
